The record followed here is patent publication US20240018161A1, “MODULATORS OF CYSTIC FIBROSIS TRANSMEMBRANE CONDUCTANCE REGULATOR” (VERTEX PHARMACEUTICALS INCORPORATED, priority 2020, published 2024).

The structures appear in SMILES notation. Read-outs that look alike come from different tables or passages of the source.

For this experiment, the target named is CFTR-mediated chloride transport in human intestinal epithelial enteroid cells (Homo sapiens, UniProt P13569). Put plainly: Membrane potential dye, Enteroid Assay A. It counts as cell-based. As to conditions: for EC50: read-out: Ent. A EC50. In short, it runs like this: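 Membrane potential dye (20 μM methyl oxonol, with 30 μM CaCCinh-A01 and 30 μM Chicago Sky Blue) loaded 25 min at room temperature into ROCK-inhibitor-seeded human enteroid cells. Chloride-free stimulation buffer triggered transport, followed by 15 min fluorescence. % Activity relative to 3 μM/3 μM/300 nM triple-combination control.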

Setting [1] is: enteroid cells incubated with test compound 18-24 hours, acute 10 μM forskolin and 300 nM N-[2,4-bis(1,1-dimethylethyl)-5-hydroxyphenyl]-1,4-dihydro-4-oxoquinoline-3-carboxamide.
Setting [2] is: percentage of chloride transport of triple combination control (3 μM N-[(6-amino-2-pyridyl)sulfonyl]-6-(3-fluoro-5-isobutoxy-phenyl)-2-[(4S)-2,2,4-trimethylpyrrolidin-1-yl]pyridine-3-carboxamide based).

Sequence of CFTR-mediated chloride transport in human intestinal epithelial enteroid cells (P13569 with tags, fused parts or gaps DEL508-508): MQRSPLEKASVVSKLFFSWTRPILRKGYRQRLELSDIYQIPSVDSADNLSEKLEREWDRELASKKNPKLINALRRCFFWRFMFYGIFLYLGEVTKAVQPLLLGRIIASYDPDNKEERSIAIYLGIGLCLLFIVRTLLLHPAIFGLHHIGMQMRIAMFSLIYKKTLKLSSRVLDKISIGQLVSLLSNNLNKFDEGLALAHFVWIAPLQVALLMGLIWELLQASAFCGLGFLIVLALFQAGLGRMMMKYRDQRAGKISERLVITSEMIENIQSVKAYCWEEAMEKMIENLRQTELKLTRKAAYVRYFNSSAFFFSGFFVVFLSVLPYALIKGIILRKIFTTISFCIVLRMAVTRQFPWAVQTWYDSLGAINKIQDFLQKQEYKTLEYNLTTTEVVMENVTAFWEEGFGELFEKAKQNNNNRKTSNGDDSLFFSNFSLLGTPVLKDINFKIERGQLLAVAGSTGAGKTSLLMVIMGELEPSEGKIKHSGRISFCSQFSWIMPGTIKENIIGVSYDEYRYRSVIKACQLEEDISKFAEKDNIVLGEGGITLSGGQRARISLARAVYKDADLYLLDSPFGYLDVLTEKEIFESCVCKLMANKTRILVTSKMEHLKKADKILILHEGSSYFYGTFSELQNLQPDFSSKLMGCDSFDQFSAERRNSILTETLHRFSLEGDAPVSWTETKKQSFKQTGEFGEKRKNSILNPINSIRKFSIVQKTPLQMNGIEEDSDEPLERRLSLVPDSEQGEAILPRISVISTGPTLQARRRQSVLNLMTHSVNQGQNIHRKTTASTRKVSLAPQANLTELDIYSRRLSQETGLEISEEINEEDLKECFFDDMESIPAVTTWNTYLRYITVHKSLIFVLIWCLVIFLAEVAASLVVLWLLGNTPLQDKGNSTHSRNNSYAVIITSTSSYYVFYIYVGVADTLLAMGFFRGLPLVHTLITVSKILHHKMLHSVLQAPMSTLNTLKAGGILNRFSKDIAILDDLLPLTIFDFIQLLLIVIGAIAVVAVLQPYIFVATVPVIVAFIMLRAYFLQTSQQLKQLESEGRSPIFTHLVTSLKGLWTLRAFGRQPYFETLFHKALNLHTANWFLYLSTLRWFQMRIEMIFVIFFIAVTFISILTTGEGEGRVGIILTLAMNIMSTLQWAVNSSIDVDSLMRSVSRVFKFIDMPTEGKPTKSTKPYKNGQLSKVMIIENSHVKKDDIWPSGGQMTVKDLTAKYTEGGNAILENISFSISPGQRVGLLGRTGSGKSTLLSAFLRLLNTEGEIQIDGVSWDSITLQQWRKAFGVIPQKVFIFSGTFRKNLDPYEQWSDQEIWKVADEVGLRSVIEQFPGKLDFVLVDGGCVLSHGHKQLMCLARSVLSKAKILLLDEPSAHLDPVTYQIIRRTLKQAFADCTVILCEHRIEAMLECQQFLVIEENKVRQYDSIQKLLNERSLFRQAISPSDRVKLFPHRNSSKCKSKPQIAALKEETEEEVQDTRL

One may read the EC50 as the concentration giving half of the maximal effect. For the molecule `Cc1cccc(C)c1-c1cc2nc(n1)NS(=O)(=O)c1cccc(c1)C(=O)N1C[C@@H](CN(C)C[C@@H]1CC(C)(C)C)O2` [Compound 136, (16R,20S)-12-(2,6-Dimethylphenyl)-20-(2,2-dimethylpropyl)-18-methyl-15-oxa-8λ^6-thia-1,9,11,18,22-pentaazatetracyclo[14.4.1.13,7.110,14]tricosa-3(23),4,6,10(22),11,13-hexaene-2,8,8-trione], for the setting “Enteroid Assay A”, the “Ent. A Max Activity (%)” value was “+++ (+++ is >600%)” and the EC50 is below 1000 nM. Regarding `Cc1cccc(C)c1-c1cc2nc(n1)NS(=O)(=O)c1cccc(c1)C(=O)N1C[C@@H](CN(C3CCCC3)C[C@H]1CC(C)C)O2` [Compound 138], where the note is “Enteroid Assay A”, the “Ent. A Max Activity (%)” value is “++ (++ is 30-60%)” and the EC50 was below 1000 nM. Take `Cc1cccc(C)c1-c1cc2nc(n1)NS(=O)(=O)c1cccc(c1)C(=O)N1C[C@@H](CN(C(C)C)C[C@H]1CC(C)C)O2` [Compound 139]: under “Enteroid Assay A”, the “Ent. A Max Activity (%)” value is reported as “+++ (+++ is >600%)” and the EC50 is below 1000 nM. `Cc1cccc(C)c1-c1cc2nc(n1)NS(=O)(=O)c1cccc(c1)C(=O)N1C[C@@H](CN(C3CC4(CCCCC4)C3)C[C@H]1CC(C)C)O2` [Compound 140]: for the setting “Enteroid Assay A”, the “Ent. A Max Activity (%)” value was “+++ (+++ is >600%)” and the concentration giving a half-maximal response (EC50) was below 1000 nM. For the molecule `Cc1cccc(C)c1-c1cc2nc(n1)NS(=O)(=O)c1cccc(c1)C(=O)N1C[C@@H](CN(C3CC4(CCCC4)C3)C[C@H]1CC(C)C)O2` [Compound 141], where the note is “Enteroid Assay A”, the “Ent. A Max Activity (%)” value is “+++ (+++ is >600%)” and the half-maximal effective concentration (EC50) is below 1000 nM. Take `Cc1cccc(C)c1-c1cc2nc(n1)NS(=O)(=O)c1cccc(c1)C(=O)N1C[C@@H](CN(C3CCC(F)(F)CC3)C[C@H]1CC(C)C)O2` [Compound 142]: for the setting “Enteroid Assay A”, the “Ent. A Max Activity (%)” value was “+++ (+++ is >600%)” and the concentration giving a half-maximal response (EC50) was below 1000 nM. For the molecule `Cc1cccc(C)c1-c1cc2nc(n1)NS(=O)(=O)c1cccc(c1)C(=O)N1C[C@@H](CN(CCC(C)(C)C)C[C@H]1CC(C)C)O2` [Compound 143], for the setting “Enteroid Assay A”, the “Ent. A Max Activity (%)” value is recorded as “+++ (+++ is >600%)” and the EC50 is below 1000 nM. For the molecule `Cc1cccc(C)c1-c1cc2nc(n1)NS(=O)(=O)c1cccc(c1)CN1C[C@@H](CN(CCC(C)(C)C)CC1=O)O2` [Compound 145], for the setting “Enteroid Assay A”, the “Ent. A Max Activity (%)” value is “++ (++ is 30-60%)” and the concentration for a half-maximal effect (EC50) is below 1000 nM.

Take `Cc1cccc(C)c1-c1cc2nc(n1)NS(=O)(=O)c1cccc(c1)C(=O)N1C[C@@H](CN(C3CCC(F)(F)CC3)C[C@@H]1C(C)C)O2` [Compound 146]: where the note is “Enteroid Assay A”, the “Ent. A Max Activity (%)” value is recorded as “+++ (+++ is >600%)” and the EC50 is below 1000 nM. On the same counts, the results for `Cc1cccc(C)c1-c1cc2nc(n1)NS(=O)(=O)c1cccc(c1)C(=O)N1C[C@@H](CN(C3CC4(CCCC4)C3)C[C@@H]1C(C)C)O2` [Compound 147] are “+++ (+++ is >600%)” and below 1000 nM.

Take `Cc1cccc(C)c1-c1cc2nc(n1)NS(=O)(=O)c1cccc(c1)C(=O)N1C[C@@H](CN(C3CC4(CCCCC4)C3)C[C@@H]1C(C)C)O2` [Compound 148]: where the note is “Enteroid Assay A”, the “Ent. A Max Activity (%)” value is “+++ (+++ is >600%)” and the half-maximal effective concentration (EC50) was below 1000 nM. Regarding `Cc1cccc(C)c1-c1cc2nc(n1)NS(=O)(=O)c1cccc(c1)C(=O)N1C[C@@H](CN(C)C[C@@H]1C(C)C)O2` [Compound 149], where the note is “Enteroid Assay A”, the “Ent. A Max Activity (%)” value is recorded as “+++ (+++ is >600%)” and the half-maximal effective concentration (EC50) is below 1000 nM. As to `Cc1cccc(C)c1-c1cc2nc(n1)NS(=O)(=O)c1cccc(c1)C(=O)N1C[C@@H](CN(C3CC4(CCCCC4)C3)C[C@@H]1CC(C)C)O2` [Compound 150], where the note is “Enteroid Assay A”, the “Ent. A Max Activity (%)” value was “++ (++ is 30-60%)” and the concentration for a half-maximal effect (EC50) is below 1000 nM. As for `Cc1cccc(C)c1-c1cc2nc(n1)NS(=O)(=O)c1cccc(c1)C(=O)N1C[C@@H](CN(CC(C)(C)C)C[C@@H]1CC(C)C)O2` [Compound 151], for the setting “Enteroid Assay A”, the “Ent. A Max Activity (%)” value was “++ (++ is 30-60%)” and the concentration giving a half-maximal response (EC50) was below 1000 nM. `Cc1cccc(C)c1-c1cc2nc(n1)NS(=O)(=O)c1cccc(c1)C(=O)N1C[C@@H](CN(C3CCC(F)(F)CC3)C[C@@H]1CC(C)C)O2` [Compound 152]: where the note is “Enteroid Assay A”, the “Ent. A Max Activity (%)” value is on record as “++ (++ is 30-60%)” and the EC50 is below 1000 nM. `Cc1cccc(C)c1-c1cc2nc(n1)NS(=O)(=O)c1cccc(c1)C(=O)N1C[C@@H](CN(CCC(C)(C)C)C[C@@H]1CC(C)C)O2` [Compound 153]: under “Enteroid Assay A”, the “Ent. A Max Activity (%)” value is “++ (++ is 30-60%)” and the EC50 is below 1000 nM.

Turning to `Cc1cccc(C)c1-c1cc2nc(n1)NS(=O)(=O)c1cccc(c1)C(=O)N1C[C@@H](CN(CC(C)(C)C)[C@@H](CC(C)C)C1)O2` [Compound 154], for the setting “Enteroid Assay A”, the “Ent. A Max Activity (%)” value is “+++ (+++ is >600%)” and the concentration for a half-maximal effect (EC50) was below 1000 nM.

Take `Cc1cccc(C)c1-c1cc2nc(n1)NS(=O)(=O)c1cccc(c1)C(=O)N1C[C@@H](CN(CCC(C)(C)C)[C@@H](CC(C)C)C1)O2` [Compound 155]: where the note is “Enteroid Assay A”, the “Ent. A Max Activity (%)” value is listed as “+++ (+++ is >600%)” and the EC50 was below 1000 nM. For the molecule `Cc1cccc(C)c1-c1cc2nc(n1)NS(=O)(=O)c1cccc(c1)C(=O)N1C[C@@H](CN(C3CC4(CCCC4)C3)[C@@H](CC(C)C)C1)O2` [Compound 156], under “Enteroid Assay A”, the “Ent. A Max Activity (%)” value is on record as “+++ (+++ is >600%)” and the EC50 is below 1000 nM. Consider `Cc1cccc(C)c1-c1cc2nc(n1)NS(=O)(=O)c1cccc(c1)C(=O)N1CCN(CCC(C)(C)C)C[C@H](O2)[C@H]1CC(C)C` [Compound 157], for which, where the note is “Enteroid Assay A”, the “Ent. A Max Activity (%)” value was “+++ (+++ is >600%)” and the EC50 is below 1000 nM. `Cc1cccc(C)c1-c1cc2nc(n1)NS(=O)(=O)c1cccc(c1)C(=O)N1CCN(C3CCC(F)(F)CC3)C[C@@H](O2)[C@H]1CC(C)C` [Compound 158]: the “Ent. A Max Activity (%)” value is “+++ (key: +++ is >600%; ++ is 30-60%; + is <30%)”. Take `Cc1cccc(C)c1-c1cc2nc(n1)NS(=O)(=O)c1cccc(c1)C(=O)N1CCN(CCC(C)(C)C)C[C@@H](O2)[C@H]1CC(C)C` [Compound 159]: for the setting “Enteroid Assay A”, the “Ent. A Max Activity (%)” value was “+++ (+++ is >600%)” and the EC50 was below 1000 nM.

`Cc1cccc(C)c1-c1cc2nc(n1)NS(=O)(=O)c1cccc(c1)C(=O)N1CCNC[C@@H]1CO2` [Compound 161, (8R)-13-(2,6-Dimethylphenyl)-10-oxa-17λ^6-thia-3,6,14,16,23-pentaazatetracyclo[16.3.1.111,15.03,8]tricosa-1(21),11,13,15(23),18(22),19-hexaene-2,17,17-trione]: the concentration giving a half-maximal response (EC50) under setting [1] is 3000 to 30000 nM. The “Ent. A Max Activity (%)” value under setting [2] was “++ (++ is 30-60%)”. In the same order, the values of `Cc1cccc(C)c1-c1cc2nc(n1)NS(=O)(=O)c1cccc(c1)C(=O)N1CCN(C)C[C@@H]1CO2` [Compound 162, (8R)-13-(2,6-Dimethylphenyl)-6-methyl-10-oxa-17λ^6-thia-3,6,14,16,23-pentaazatetracyclo[16.3.1.111,15.03,8]tricosa-1(21),11,13,15(23),18(22),19-hexaene-2,17,17-trione] are 3000 to 30000 nM and “++ (++ is 30-60%)”. Take `Cc1cccc(C)c1-c1cc2nc(n1)NS(=O)(=O)c1cccc(c1)C(=O)N1CCN(CCC3(C(F)(F)F)CC3)C[C@@H]1CO2` [Compound 163, (8R)-13-(2,6-Dimethylphenyl)-6-{2-[1-(trifluoromethyl)cyclopropyl]ethyl}-10-oxa-17λ^6-thia-3,6,14,16,23-pentaazatetracyclo[16.3.1.111,15.03,8]tricosa-1(22),11(23),12,14,18,20-hexaene-2,17,17-trione]: under setting [1], the EC50 is below 1000 nM. Under setting [2], the “Ent. A Max Activity (%)” value is on record as “+++ (+++ is >60%)”. For `Cc1cccc(C)c1-c1cc2nc(n1)NS(=O)(=O)c1cccc(c1)C(=O)N1CCN(Cc3ccccc3)C[C@@H]1CO2` [Compound 164, (8R)-6-Benzyl-13-(2,6-dimethylphenyl)-10-oxa-17λ^6-thia-3,6,14,16,23-pentaazatetracyclo[16.3.1.111,15.03,8]tricosa-1(21),11,13,15(23),18(22),19-hexaene-2,17,17-trione], the EC50 under setting [1] is below 1000 nM. Also, the “Ent. A Max Activity (%)” value under setting [2] is “+++ (+++ is >60%)”. In the same order, the values of `Cc1cccc(C)c1-c1cc2nc(n1)NS(=O)(=O)c1cccc(c1)C(=O)N1CCN(C(C)C)C[C@@H]1CO2` [Compound 165, (8R)-13-(2,6-Dimethylphenyl)-6-(propan-2-yl)-10-oxa-17λ^6-thia-3,6,14,16,23-pentaazatetracyclo[16.3.1.111,15.03,8]tricosa-1(21),11,13,15(23),18(22),19-hexaene-2,17,17-trione] are 3000 to 30000 nM and “+++ (+++ is >60%)”. On the same counts, the results for `Cc1cccc(C)c1-c1cc2nc(n1)NS(=O)(=O)c1cccc(c1)C(=O)N1CCN(C(=O)NC3CCCCCC3)C[C@@H]1CO2` [Compound 166, (8R)—N-Cycloheptyl-13-(2,6-dimethylphenyl)-2,17,17-trioxo-10-oxa-17λ^6-thia-3,6,14,16,23-pentaazatetracyclo[16.3.1.111,15.03,8]tricosa-1(21),11,13,15(23),18(22),19-hexaene-6-carboxamide] are 3000 to 30000 nM and “+++ (+++ is >60%)”.

`Cc1cccc(C)c1-c1cc2nc(n1)NS(=O)(=O)c1cccc(c1)C(=O)N1CCN(C(=O)N(C(C)C)C(C)C)C[C@@H]1CO2` [Compound 167, (8R)-13-(2,6-Dimethylphenyl)-2,17,17-trioxo-N,N-bis(propan-2-yl)-10-oxa-17λ^6-thia-3,6,14,16,23-pentaazatetracyclo[16.3.1.111,15.03,8]tricosa-1(21),11,13,15(23),18(22),19-hexaene-6-carboxamide]: under setting [1], the EC50 was 1000 to 3000 nM. The “Ent. A Max Activity (%)” value under setting [2] is reported as “+++ (+++ is >60%)”.
